Assay results taken from ChEMBL document CHEMBL2010777, “Synthesis and evaluation of human phosphodiesterases (PDE) 5 inhibitor analogs as trypanosomal PDE inhibitors. Part 2. Tadalafil analogs” (Bioorg Med Chem Lett, 2012).

biological target: T1, Class 1 phosphodiesterase PDEB1 (Trypanosoma brucei) (UniProt Q8WQX9); test: Inhibition of Trypanosoma brucei PDEB1 using cAMP as substrate at 10 uM preincubated for 10 mins prior substrate addition by spectrophotometry
T1 sequence (whole entry): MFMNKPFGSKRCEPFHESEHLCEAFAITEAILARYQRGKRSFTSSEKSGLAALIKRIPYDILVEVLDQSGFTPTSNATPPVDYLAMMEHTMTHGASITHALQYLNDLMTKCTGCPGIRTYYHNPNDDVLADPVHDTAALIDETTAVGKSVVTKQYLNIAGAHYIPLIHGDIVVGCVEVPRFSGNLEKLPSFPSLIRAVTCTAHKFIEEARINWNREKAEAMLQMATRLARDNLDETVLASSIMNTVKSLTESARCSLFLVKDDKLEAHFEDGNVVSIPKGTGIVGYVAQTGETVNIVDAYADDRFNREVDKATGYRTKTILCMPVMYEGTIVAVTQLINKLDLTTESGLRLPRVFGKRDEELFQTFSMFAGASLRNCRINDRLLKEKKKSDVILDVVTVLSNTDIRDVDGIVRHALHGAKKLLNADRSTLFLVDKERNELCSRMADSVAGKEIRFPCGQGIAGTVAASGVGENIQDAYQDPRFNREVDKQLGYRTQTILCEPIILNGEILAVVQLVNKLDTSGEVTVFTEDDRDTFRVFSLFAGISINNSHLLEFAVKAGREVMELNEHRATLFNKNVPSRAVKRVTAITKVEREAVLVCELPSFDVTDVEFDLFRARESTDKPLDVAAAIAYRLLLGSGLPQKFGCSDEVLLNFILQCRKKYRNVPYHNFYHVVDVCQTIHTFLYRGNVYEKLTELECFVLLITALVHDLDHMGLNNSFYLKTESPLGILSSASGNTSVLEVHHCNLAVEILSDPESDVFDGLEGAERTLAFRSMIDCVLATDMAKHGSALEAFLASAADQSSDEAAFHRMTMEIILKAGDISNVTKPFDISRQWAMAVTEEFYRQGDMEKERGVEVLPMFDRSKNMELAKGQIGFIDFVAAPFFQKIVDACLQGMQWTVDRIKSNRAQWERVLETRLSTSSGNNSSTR

With `CN1CC(=O)N2[C@@H](c3ccc4c(c3)OCO4)c3[nH]c4ccc(Br)cc4c3C[C@@H]2C1=O` as the molecule, how does the inhibition read?
Its inhibition is 11.6%.

With `CN1CC(=O)N2[C@@H](c3ccc4c(c3)OCO4)c3[nH]c4ccccc4c3C[C@@H]2C1=O` as the molecule, how does the inhibition read?
The inhibition was 38.8%.

With `Cc1n[nH]cc1C(=O)NCC1c2[nH]c3ccccc3c2C[C@@H]2C(=O)N(C)CC(=O)N12` (stereo partly drawn) as the molecule, how does the inhibition read?
The inhibition was 0%.

For `CN1CC(=O)N2[C@H](c3ccc4c(c3)OCO4)c3c(c4ccccc4n3C)C[C@@H]2C1=O`, which inhibition is on record?
Its inhibition is 6.9%.

Which inhibition does the source give for `NC(=O)[C@H]1Cc2c([nH]c3ccccc23)C(c2cccnc2)N1` (stereo partly drawn) here?
Its inhibition is 22.6%.

Which inhibition does the source give for `CN1CC(=O)N2C(CNCc3cccnc3)c3[nH]c4ccccc4c3C[C@@H]2C1=O` (stereo partly drawn) here?
The inhibition was 6.09%.

For `CN1CC(=O)N2[C@@H](c3ccc4c(c3)OCO4)c3c(c4ccccc4n3C)C[C@@H]2C1=O`, which inhibition is on record?
The inhibition was 19.7%.

Which inhibition does the source give for `CN1CC(=O)N2[C@@H](c3ccc4c(c3)OCO4)c3[nH]c4ccc(-c5ccn[nH]5)cc4c3C[C@@H]2C1=O` here?
The inhibition was 71.8%.

For `CN1CC(=O)N2C(CNC(=O)OCc3ccccc3)c3[nH]c4ccccc4c3C[C@@H]2C1=O` (stereo partly drawn), which inhibition is on record?
Its inhibition is 21.2%.

With `CC(=O)NCC1c2[nH]c3ccccc3c2C[C@@H]2C(=O)N(C)CC(=O)N12` (stereo partly drawn) as the molecule, how does the inhibition read?
The inhibition was 0%.

For `CN1CC(=O)N2[C@H](c3ccc4c(c3)OCO4)c3[nH]c4ccc(Br)cc4c3C[C@@H]2C1=O`, which inhibition is on record?
Its inhibition is 11.8%.

biological target: T1, Class 1 phosphodiesterase PDEB1 (Trypanosoma brucei); test: Inhibition of Trypanosoma brucei PDEB1 using cAMP as substrate at 100 uM preincubated for 10 mins prior substrate addition by spectrophotometry

For `CC(=O)N1CCc2c([nH]c3ccccc23)C1c1ccc2c(c1)OCO2` (stereo not drawn), which inhibition is on record?
The inhibition was 17%.

For `CC1NC(C(N)=O)Cc2c1[nH]c1ccccc21` (stereo not drawn), which inhibition is on record?
Its inhibition is 13.3%.

Which inhibition does the source give for `CN1CC(=O)N2C(c3cccnc3)c3[nH]c4ccccc4c3C[C@@H]2C1=O` (stereo partly drawn) here?
Its inhibition is 9.4%.

For `NC(=O)[C@H]1Cc2c([nH]c3ccccc23)[C@H](c2ccc3c(c2)OCO3)N1`, which inhibition is on record?
The inhibition was 0%.

Which inhibition does the source give for `NC(=O)[C@H]1Cc2c([nH]c3ccccc23)[C@@H](c2ccc3c(c2)OCO3)N1` here?
The inhibition was 19.5%.

With `CN1CC(=O)N2[C@H](c3ccc4c(c3)OCO4)c3[nH]c4ccccc4c3C[C@@H]2C1=O` as the molecule, how does the inhibition read?
Its inhibition is 0%.

test system: not listed separately; test: Solubility of the compound at higher concentration; type: physicochemical

Which solubility does the source give for `CN1CC(=O)N2[C@@H](c3ccc4c(c3)OCO4)c3[nH]c4ccc(-c5ccn[nH]5)cc4c3C[C@@H]2C1=O` here?
Its solubility is “Insoluble”.
